From patent US10941157B2, “Pesticidal compositions and uses thereof” (Gilead Apollo, LLC, priority 2015, dated 2021)
In brackets after ≈: the same amount, converted by molar mass.

Legend:
[1] = system: Botrtyis cinerea (Bc); assay: In vitro pathogen growth inhibition assay, Bc; type: cell-based; conditions: 48 h, ≥90% inhibition; 48 hours vs 2% DMSO control; read-out: Compound Concentration (ppm) sufficient for ≥90% inhibition of growth, Bc
How it was run: (§1)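 Value reported is the compound concentration reaching ≥90% growth inhibition, from OD readings at 24 and 48 h after blank subtraction, confirmed visually. Inoculum was spores diluted in 17% V8 medium, except Rs, using 1.5 mm mycelial plugs in ¼ PDB; actual compound concentration corrected via OD600.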

[2] = system: Collectotrichum graminicola (Cg); assay: In vitro pathogen growth inhibition assay, Cg; type: cell-based; conditions: 48 h, ≥90% inhibition; 48 hours vs 2% DMSO control; read-out: Compound Concentration (ppm) sufficient for ≥90% inhibition of growth, Cg
How it was run: as §1

[3] = system: Diplodia maydis (Dm); assay: In vitro pathogen growth inhibition assay, Dm; type: cell-based; conditions: Stenocarpella maydis, 48 h, ≥90% inhibition; 48 hours vs 2% DMSO control; read-out: Compound Concentration (ppm) sufficient for ≥90% inhibition of growth, Dm
How it was run: (§2)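 Spores in 17% V8 liquid medium, or 1.5 mm Rs mycelial plugs in ¼ PDB, incubated with compound; final concentration checked by OD600 for precipitation. OD readings at 24 and 48 h, blank-subtracted, plus visual ratings; value is concentration giving ≥90% growth inhibition.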

[4] = system: Fusarium moniliforme (Fm); assay: In vitro pathogen growth inhibition assay, Fm; type: cell-based; conditions: Fusarium verticillioides; ≥90% inhibition; 48 hours vs 2% DMSO control; read-out: Compound Concentration (ppm) sufficient for ≥90% inhibition of growth, Fm
How it was run: as §1

[5] = system: Fusarium virguliforme (Fv); assay: In vitro pathogen growth inhibition assay, Fv; type: cell-based; conditions: ≥90% inhibition, 48 hours vs 2% DMSO control, read-out: Compound Concentration (ppm) sufficient for ≥90% inhibition of growth, Fv
How it was run: as §2

[6] = system: Phytophthora capsici (Pc); assay: In vitro pathogen growth inhibition assay, Pc; type: cell-based; conditions: 48 h, ≥90% inhibition, 48 hours vs 2% DMSO control, read-out: Compound Concentration (ppm) sufficient for ≥90% inhibition of growth, Pc
How it was run: as §2

[7] = system: Rhizoctonia solani (Rs); assay: In vitro pathogen growth inhibition assay, Rs (mycelial plugs); type: cell-based; conditions: Rhizoctonia solani, 48 h, ≥90% inhibition; mycelial plugs; 48 hours vs 2% DMSO control; read-out: Compound Concentration (ppm) sufficient for ≥90% inhibition of growth, Rs
How it was run: as §2

[8] = system: Septoria tritici (St); assay: In vitro pathogen growth inhibition assay, St; type: cell-based; conditions: Zymoseptoria tritici, 48 h, ≥90% inhibition; 48 hours vs 2% DMSO control; read-out: Compound Concentration (ppm) sufficient for ≥90% inhibition of growth, St
How it was run: as §1

[9] = system: Saccharomyces cerevisiae (Sc); assay: Yeast growth inhibition assay; type: cell-based; conditions: Saccharomyces cerevisiae, ≥75% inhibition, read-out: Compound Concentration (ppm) sufficient for ≥75% inhibition, Sc
Experimental: Both tables list the concentration of each compound that was sufficient to ≥90% inhibition of growth for each of the fungal pathogens listed above. In addition, some of compounds were tested in a yeast growth inhibition assay for Saccharomyces cerevisiae (Sc). Table 2 lists the concentration of the tested compound that was sufficient to ≥75% inhibition of Saccharomyces cerevisiae (Sc).

[10] = system: Blumeria graminis f. sp. hordei; assay: Foliar protection test for barley powdery mildew control; type: in vivo; conditions: foliar spray on Hordeum vulgare cv. Perry, inoculated 24 hours after treatment, evaluated 7 days later
How it was run: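 Protective foliar test: compound atomized onto both leaf surfaces of 6-day-old Hordeum vulgare cv. Perry, followed after 24 h by spore-cloud inoculation from colonized untreated plants. Disease rated on leaves 7 days on, plants held at 20 to 22° C and 70% RH.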

[11] = system: Sphaerotheca fuliginea; assay: Foliar protection for cucumber powdery mildew control; type: in vivo; conditions: foliar spray on Cucumis sativus cv. Straight Eight, inoculated 24 hours after treatment, evaluated 7 days later
How it was run: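 Protective foliar spray on 10-day-old Straight Eight cucumbers, with S. fuliginea spores dusted from infected stock plants 24 h after treatment. Disease developed at 23–27 °C, 60% RH and a 16 h photoperiod. Leaves were rated for mildew growth after 7 days; test rates 10 ppm or below.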

[12] = system: Mycosphaerella graminicola (synthetic Septoria tritici); assay: Foliar protection test for wheat septoria leaf blotch control; type: in vivo; conditions: foliar spray on Triticum aestivum cv. WinterHawk, inoculated 1 hour after treatment, evaluated 16 days later
[13] = system: Fusarium graminearum; type: in vivo; conditions: spray on flowering Triticum aestivum cv. Samson, inoculated 24 hours after treatment, evaluated 14 days later
[14] = system: Puccinia triticina; assay: Foliar protection test for wheat leaf rust control; type: in vivo; conditions: foliar application to wheat (Triticum aestivum cv. Winterhawk), evaluated 10 days later
[15] = system: Phakopsora pachyrhizi; assay: Foliar protection test for Asian soybean rust control; type: in vivo; conditions: foliar application to soybean (Glycine max AG4832), percent disease area evaluated 14 days later
[16] = system: Rhizoctonia solani; assay: Seed protectant for soybean seedling disease, R. solani; type: in vivo; conditions: soybean from treated seeds, 0.025 mg/seed, R. solani inoculated
Experimental: (§3) The pathogen of Rhizoctonia solani inoculum was grown on sterile sorghum; and the pathogen of Pythium ultimum inoculum was grown on white millet.
(§4) Soybean seeds (Glycine max cv. AG4832) were planted in 2.5-inch square pots containing Berger BM2 germination mix amended with fertilizer (e.g., 14-14-14). Pots with soil were inoculated with the pathogen of R. solani or P. ultimum at time of planting. A hole was pressed into the soil to a depth of about 2 to 3 cm; the inoculum was added to the hole, followed by the seed which was then covered with soil. Two seeds per pot were planted. Plants were grown in a growth chamber at conditions of 20 to 24° C., 14 hour light cycle, 500 uM of light, and 65% humidity. The pots inoculated with P. ultimum were sub-irrigated every day; and the pots inoculated with R. solani were sub-irrigated every other day.
(§5) Seedling emergence was captured at 7 and 14 days after seeding. At 14 days, the top of the plant was removed and fresh weight was recorded. The plant weights from the seeds treated with test compounds (e.g., in formulations) were compared to the ones either from the inoculated non-treated seeds or non-inoculated non-treated seeds. Table 10 lists the results of the R. solani control in soybean upon seed treatment with test compounds, and Table 11 lists the results of the P. ultimum control in soybean upon seed treatment with test compounds, respectively.

[17] = system: Pythium ultimum; assay: Seed protectant for soybean seedling disease, P. ultimum; type: in vivo; conditions: soybean from treated seeds, 0.025 mg/seed, P. ultimum inoculated
Experimental: as §3, §4, §5

[18] = percentage of non-inoculated non-treated controls

Row | Structure (SMILES) | IC90 [1] [µg/mL] | IC90 [2] [µg/mL] | IC90 [3] [µg/mL] | IC90 [4] [µg/mL] | IC90 [5] [µg/mL] | IC90 [6] [µg/mL] | IC90 [7] [µg/mL] | IC90 [8] [µg/mL] | IC75 [9] [µg/mL] | Barley Powdery Mildew Control at a compound concentration of 10 ppm or lower [10] | Cucumber Powdery Mildew Control at a compound concentration of 10 ppm or lower [11] | Septoria Leaf Blotch Control at a compound concentration of 25 ppm or lower [12] | Wheat Fusarium Head Blight Control at a compound concentration of 25 ppm or lower [13] | Wheat Leaf Rust Control at a compound concentration of 10 ppm or lower [14] | Asian Soybean Rust Control at a compound concentration of 25 ppm or lower [15] | Plant Weight ([16]; fresh weight at 14 days) [g] | Improvement in plant weight [16, 18] [%] | Plant Weight ([17]; fresh weight at 14 days) [g] | Improvement in plant weight [17, 18] [%]
1 | CCOC(=O)c1sc2c(c1C)c(=O)n(C(C)(C)C(=O)N1CCCC1)c(=O)n2C[C@H](OC1CCOCC1)c1ccccc1OC [Compound I-003, (R)-ethyl-1-(2-(2-methoxyphenyl)-2-((tetrahydro-2H-pyran-4-yl)oxy)ethyl)-5-methyl-3-(2-methyl-1-oxo-1-(pyrrolidin-1-yl)propan-2-yl)-2,4-dioxo-1,2,3,4-tetrahydrothieno[2,3-d]pyrimidine-6-carboxylate] | 2 (≈ 3.19 µM) | 0.4 (≈ 0.637 µM) | 2 (≈ 3.19 µM) | 0.08 (≈ 0.127 µM) | 0.4 (≈ 0.637 µM) | > 50 | 0.4 (≈ 0.637 µM) | ≥ 10 | 0.4 (≈ 0.637 µM) | A (from 70% to 84% control of barley powdery mildew) | AA (≥85% control of cucumber powdery mildew) | C (from 25 to 49% control of wheat septoria leaf blotch) | B (from 50 to 69% control of wheat fusarium head blight) | AA (≥85% control of wheat leaf rust) | A (from 70% to 84% control of Asian soybean rust) |  |  |  | 
2 | COc1ccc(F)cc1[C@H](Cn1c(=O)n(C(C)(C)C(=O)NC(C)C)c(=O)c2c(C)c(-n3cccn3)sc21)OC(C)C [Compound I-014, (R)-2-(1-(2-(5-fluoro-2-methoxyphenyl)-2-isopropoxyethyl)-5-methyl-2,4-dioxo-6-(1H-pyrazol-1-yl)-1,4-dihydrothieno[2,3-d]pyrimidin-3(2H)-yl)-N-isopropyl-2-methylpropanamide] | 0.4 (≈ 0.683 µM) | 2 (≈ 3.41 µM) | 2 (≈ 3.41 µM) | 0.08 (≈ 0.137 µM) | 0.4 (≈ 0.683 µM) | > 50 | 2 (≈ 3.41 µM) | > 10 | 1.2 (≈ 2.05 µM) | AA (≥85% control of barley powdery mildew) | AA (≥85% control of cucumber powdery mildew) | D (<25% control of wheat septoria leaf blotch) | C (from 25 to 49% control of wheat fusarium head blight) | A (from 70% to 84% control of wheat leaf rust) | A (from 70% to 84% control of Asian soybean rust) |  |  |  | 
3 | COCCO[C@@H](Cn1c(=O)n(C(C)(C)C(=O)NC(C)C)c(=O)c2c(C)c(-n3nccn3)sc21)c1cc(F)ccc1OC [Compound I-074, (R)-2-(1-(2-(5-fluoro-2-methoxyphenyl)-2-(2-methoxyethoxy)ethyl)-5-methyl-2,4-dioxo-6-(2H-1,2,3-triazol-2-yl)-1,4-dihydrothieno[2,3-d]pyrimidin-3 (2H)-yl)-N-isopropyl-2-methylpropanamide] | 2 (≈ 3.32 µM) | 2 (≈ 3.32 µM) | 2 (≈ 3.32 µM) | 0.08 (≈ 0.133 µM) | 0.4 (≈ 0.664 µM) | ≥ 50 | 0.4 (≈ 0.664 µM) | > 50 |  | AA (≥85% control of barley powdery mildew) | AA (≥85% control of cucumber powdery mildew) | AA (≥85% control of wheat septoria leaf blotch) | C (from 25 to 49% control of wheat fusarium head blight) | A (from 70% to 84% control of wheat leaf rust) | C (from 25 to 49% control of Asian soybean rust) | 2.06 | 25.7 | 4.33 | 69
4 | COc1ccccc1[C@H](Cn1c(=O)n(C(C)(C)C(=O)NC2CCC2)c(=O)c2c(C)c(-c3ncco3)sc21)OC(C)C [Compound I-098] | 2 (≈ 3.44 µM) | 10 (≈ 17.2 µM) | 2 (≈ 3.44 µM) | 0.4 (≈ 0.689 µM) | 10 (≈ 17.2 µM) | > 50 | 10 (≈ 17.2 µM) | > 50 | 11 (≈ 18.9 µM) |  |  |  |  |  |  |  |  |  | 
